Here are results for twelve molecules from patent publication US20070015733A1, “Aryl Phosphate Derivatives of d4T having Activity Against Resistant HIV Strains” (Parker Hughes Institute, priority 1998, published 2007).

Where two headings read alike, the source gives them in different places.

The subject of one test is HIV-1 (strain: HTLVIIIB). As to the kind of experiment: microbe, parasite or virus in culture. Particulars: PBMNC, read-out: PBMNC IC50 [RT]. Format: cell-based. The method, then: (§1) Percent inhibition of viral replication was calculated by comparing the p24 and RT activity values from the test substance-treated infected cells with those from untreated infected cells. In parallel, the cytotoxicity of the compounds was examined using a microculture tetrazolium assay (MTA) of cell proliferation, as described.in the Zarling, Enrice, and Uckun articles Supra).
(§2) Cellular Assays of Anti-HIV Activity and Cytotoxicity. […] Percent viral inhibition was calculated by comparing the RT activity values from the test substance-treated infected cells with RT values from untreated infected cells (i.e., virus controls).

Test [1] relates to HIV-1 (HTLVIIIB) in TK-deficient CEM T-cells. As to the kind of experiment: Inhibition of HIV-1 replication in TK-deficient CEM T-cells (p24 / RT activity). It is filed as cell-based. Particulars: TK-deficient CEM T-cells, read-out: CEM IC50 [RT]. The procedure:
as §1, §2

The test system of test [2] is NRTI-resistant recombinant HIV-1 isolates. Put plainly: RT activity assay, multi-NRTI-resistant recombinant HIV-1 clones. Format: cell-based.
The test system is the same in test [3]. As to the kind of experiment: p24 assay, multi-NRTI-resistant recombinant HIV-1 clones. It is filed as cell-based.
For test [4] the test system is unchanged. As to conditions: cited from earlier work.
Test [5] shares this test system. Put plainly: Documented fold decreased susceptibility of recombinant HIV-1 clones. Format: cell-based. As to conditions: for mean reduction in susceptibility: mean over 6 recombinant clones; for median reduction in susceptibility: median over 6 recombinant clones.
In the next test the test system is HIV-1 HTLVIIIB
As to the kind of experiment: microbe, parasite or virus in culture. Particulars: Human immunodeficiency virus 1, PBMC. The procedure:
In vitro assays of anti-HIV-1 activity. Normal human peripheral blood mononuclear cells (PBMNC) from HIV-negative donors were cultured 72 hours in RPMI 1640 supplemented with 20% (v/v) heat-inactivated fetal bovine serum (FBS), 3% interleukin-2, 2 mM L-glutamine, 25 mM HEPES, 2 g/L NaHCO3, […], and […] prior to exposure to HIV-1 at a multiplicity of infection (MOI) of 0.1 during a 1 hour adsorption period at 37° C. in a humidified 5% CO2 atmosphere. Subsequently, cells were cultured in 96-well microtiter plates ([…]; 2×10^6 cells/mL) in the presence of various concentrations of d4T phosphoramidates and aliquots of culture supernatants were removed from the wells on the 7th day after infection for p24 antigen assays, as previously described (Uckun et al., 1998, Antimicrobial Agents and Chem., 42(2):383-388). The applied p24 enzyme immunoassay (EIA) was the unmodified kinetic assay commercially available from Coulter Corporation/Immunotech, Inc. (Westbrooke, Me.), which utilizes a murine mAb to HIV core protein coated onto microwell strips to which the antigen present in the test culture supernatant samples binds. Percent viral inhibition was calculated by comparing the p24 values from untreated infected cells (i.e., virus controls).
The anti-HIV activity of the compounds was examined by evaluating their ability to inhibit HIV replication in peripheral blood mononuclear cells using previously described procedures (Uckun et al., 1998, Antimicrobial Agents and Chem., 42(2):383-388). Percent inhibition of viral replication was calculated by comparing the p24 antigen levels from the test substance-treated infected cells with those from vehicle-treated infected cells.
Antiviral susceptibility assays. Phenotypic drug susceptibility studies of HIV-1 isolates and strains were performed by measuring the production of the p24 gag protein in peripheral blood mononuclear cells (PBMC) from seronegative healthy volunteers in the presence of increasing concentrations of the anti-HIV agent using the quantitative Coulter HIV-1 p24 antigen ezyme immunoassay (EIA) and HIV-1 p24 Antigen Kinetic Standard (Beckman Coulter), as previously described (Uckun, 1998, Antimicrobial Agents and Chemotherapy 37(4): 835-38). Informed consent was obtained from the blood donors according to DHHS guidelines using consent forms approved by the Institutional Review Board. In brief, PBMC were cultured for 72 h in RPMI 1640 medium (Gibco) supplemented with 20% (vol/vol) heat-inactivated fetal bovine serum, 5% human interleukin-2 (Zeptometrix), 2 mM L-glutamine, 25 mM HEPES, 2 g/L NaHCO3, 100 U/ml penicillin/streptomycin (Gibco), 50 μg/ml gentamicin (Gibco), and 5 μg/ml phytohemagglutinin-P (PHA-P) (Sigma) for 24-72 hours prior to exposure to HIV at a multiplicity of infection of 0.001-0.1 during a 1-h adsorbtion period at 37±1° C. in a humidified 5-7% CO2 atmosphere. Subsequently, cells were cultured in 96-well microtiter plates (100 μl/well; 2×10^6 cells/ml, triplicate wells) in the presence of the anti-HIV agents at 6-7 different concentrations ranging from 0.0001 μM to 100 μM, and 25 μL aliquots of culture supernatants were removed from the wells on day 6 after infection for p24 EIA, as previously described (Uckun, 1998, Antimicrobial Agents and Chemotherapy, 37(4):835-38). Controls included uninfected and untreated cells (background control) and infected but untreated (virus control) cells. The p24 EIA utilizes a murine monoclonal antibody to HIV core protein used to coat microwell strips to which the antigen present in the test culture supernatant samples binds. Percent inhibition of viral replication was calculated by comparing the p24 values from the test substance-treated infected cells with p24 values from untreated infected cells (i.e., virus controls). The IC50 values were determined using the Statview statistics program (SAS Institute, Inc.).

The mark [6] stands for this setting: Human immunodeficiency virus 1, read-out: IC50 (nM), RT, recombinant clone 1617-1.
[7] abbreviates: Human immunodeficiency virus 1, read-out: IC50 (nM), RT, recombinant clone 4755-5.
The mark [8] stands for this setting: Human immunodeficiency virus 1, read-out: IC50 (nM), RT, recombinant clone 7295-1.
Setting [9] is: Human immunodeficiency virus 1, read-out: IC50 (nM), RT, recombinant clone 7324-1.
[10] abbreviates: Human immunodeficiency virus 1, read-out: IC50 (nM), RT, recombinant clone 52534-2.
Where [11] appears, read: Human immunodeficiency virus 1, read-out: IC50 (nM), RT, recombinant clone 56252-1.
[12] abbreviates: Human immunodeficiency virus 1, read-out: mean IC50, RT, mean over 6 multi-NRTI-resistant clones.
[13] abbreviates: Human immunodeficiency virus 1, read-out: IC50 (nM), p24, recombinant clone 1617-1 (151 complex).
Where [14] appears, read: Human immunodeficiency virus 1, read-out: IC50 (nM), p24, recombinant clone 4755-5.
Setting [15] is: Human immunodeficiency virus 1, read-out: IC50 (nM), p24, recombinant clone 7295-1.
The mark [16] stands for this setting: Human immunodeficiency virus 1, read-out: IC50 (nM), p24, recombinant clone 7324-1.
[17] abbreviates: Human immunodeficiency virus 1, read-out: IC50 (nM), p24, recombinant clone 52252-1 in Table 18, 56252-1 in Tables 19 and 20 (K65R, 151 complex).
[18] abbreviates: Human immunodeficiency virus 1, read-out: IC50 (nM), p24, recombinant clone printed 52534-1 in Table 18, 52534-2 in Tables 19 and 20 (69 insertion complex).
[19] abbreviates: unit not given in Table 5 (0.04 = 40 nM).

As usually defined, the IC50 is the concentration at which inhibition is half-maximal. Take `Cc1cn([C@H]2CC[C@@H](CO)O2)c(=O)[nH]c1=O` [Compound 3dT, 3′-deoxythymidine]: the IC50 was determined as 700 nM in the test on HIV-1 (strain: HTLVIIIB) (Human immunodeficiency virus 1, Table 4); 91200 nM in test [1] (Human immunodeficiency virus 1, T-cell, Table 4); 91200 nM in test [1] (Human immunodeficiency virus 1, T-cell, Table 5).
As for `CC(C)(C)NC(=O)[C@@H]1CN(Cc2cccnc2)CCN1C[C@@H](O)C[C@@H](Cc1ccccc1)C(=O)N[C@H]1c2ccccc2C[C@H]1O` [indinavir], the IC50 in test [2] (setting [6]) was 5.2 nM; in test [2] (setting [7]) it was 4.8 nM; in test [2] (setting [8]) it was 1.4 nM; in test [2] (setting [9]), 5.7 nM; in test [2] (setting [10]) it was 12.2 nM; in test [2] (setting [11]) it was 3.7 nM. Also, the IC50 in test [2] (setting [12]) is 5.5 ± 1.5 nM; in test [3] (setting [13]) it was 20.5 nM; in test [3] (setting [14]), 9.4 nM; in test [3] (setting [15]) it was 17.2 nM; in test [3] (setting [16]), 21.8 nM; in test [3] (setting [17]) it was 9 nM. Also, the IC50 in test [3] (setting [18]) was 36.5 nM.
With `Nc1nc(NC2CC2)c2ncn([C@H]3C=C[C@@H](CO)C3)c2n1` [abacavir], the Fold decreased susceptibility in test [4] (recombinant clone 1617-1) was greater than 100 fold; in test [4] (recombinant clone 4755-5) it was 7.7 fold; in test [4] (recombinant clone 7295-1), 6.1 fold; in test [4] (recombinant clone 7324-1), 4.2 fold; in test [4] (recombinant clone 52534-2), 22 fold; in test [4] (recombinant clone 56252-1) it was greater than 100 fold. In test [5], the “mean reduction in susceptibility” value came out at 40 fold. The “median reduction in susceptibility” value in test [5] is on record as 14.9 fold.
In the case of `COC(=O)C(C)NP(=O)(OCC1CCC(n2cc(C)c(=O)[nH]c2=O)O1)Oc1ccc(F)cc1` (mixture of isomers) [Compound 2c], the figures for the IC50 (with HIV-1 (strain: HTLVIIIB) (Table 4); in test [1] (Table 4)) were 3100 nM and 32700 nM, respectively.
Take “3dT-5′-(para-bromophenyl methoxyalaninyl phosphate) [Compound 2d]”: the concentration for half-maximal inhibition (IC50) in the test with HIV-1 (strain: HTLVIIIB) (Table 4) was 1200 nM; in the test on HIV-1 (strain: HTLVIIIB) (setting [19]) it was 1200 nM; in test [1] (Table 4), 22800 nM; in test [1] (Table 5), 22800 nM.
Regarding `COC(=O)C(C)NP(=O)(OCC1CCC(n2cc(C)c(=O)[nH]c2=O)O1)Oc1ccc([N+](=O)[O-])cc1` (mixture of isomers) [Compound 2e], the values for the IC50 (with HIV-1 (strain: HTLVIIIB) (Table 4); in test [1] (Table 4)) were 2000 nM and 22600 nM, respectively.
`COC(=O)[C@H](C)NP(=O)(OC[C@@H]1CC[C@H](n2cc(C)c(=O)[nH]c2=O)O1)Oc1ccccc1` (stereo partly drawn) [Compound 2a]: the IC50 was determined as 2100 nM in the test on HIV-1 (strain: HTLVIIIB) (Table 4), 2100 nM in the test with HIV-1 (strain: HTLVIIIB) (setting [19]), 7500 nM in test [1] (Table 4) and 7500 nM in test [1] (Table 5).
For the molecule `COC(=O)C(C)NP(=O)(OCC1OC(n2cc(C)c(=O)[nH]c2=O)CC1N=[N+]=[N-])Oc1ccc(OC)cc1` (stereo not drawn) [Compound 5b], the figures for the IC50 (in the test with HIV-1 (strain: HTLVIIIB) (setting [19]); in test [1] (Table 5)) were 100 nM and 4100 nM, respectively.
Consider `O=c1[nH]cnc2c1ncn2[C@H]1CC[C@@H](CO)O1` [didanosine], for which the Fold decreased susceptibility is 23 fold in test [4] (recombinant clone 1617-1); 2.4 fold in test [4] (recombinant clone 4755-5); 1.9 fold in test [4] (recombinant clone 7295-1); 1.7 fold in test [4] (recombinant clone 7324-1); 3.3 fold in test [4] (recombinant clone 52534-2); 28 fold in test [4] (recombinant clone 56252-1). Besides, the “mean reduction in susceptibility” value in test [5] is 10.1 fold. The “median reduction in susceptibility” value in test [5] is on record as 2.9 fold.
The IC90 is the concentration needed for an effect of 90%. Read a high IC90 as weaker potency. With `Nc1ccn([C@@H]2CS[C@H](CO)O2)c(=O)n1` [lamivudine], the IC50 in test [2] (setting [6]) was greater than 10000 nM; in test [2] (setting [7]), greater than 10000 nM; in test [2] (setting [8]) it was greater than 10000 nM; in test [2] (setting [9]), 634 nM; in test [2] (setting [10]), greater than 10000 nM; in test [2] (setting [11]), 7210 nM. For the same molecule, the IC50 in test [2] (setting [12]) is 7970 ± 1540 nM; in test [3] (setting [13]) it was greater than 10000 nM; in test [3] (setting [14]), greater than 10000 nM; in test [3] (setting [15]), greater than 10000 nM; in test [3] (setting [16]), 800 nM; in test [3] (setting [17]), greater than 10000 nM. The IC50 is greater than 10000 nM in test [3] (setting [18]) and 40 ± 25 nM in the test on HIV-1 HTLVIIIB. Besides, the “mean reduction in susceptibility” value in test [5] was determined as 215.5 fold. The “median reduction in susceptibility” value in test [5] is 300 fold. Further, it took 1820 ± 747 nM to reach the 90% level in the test with HIV-1 HTLVIIIB (IC90).
In the case of `C[C@H](Cn1cnc2c(N)ncnc21)OCP(=O)(O)O` [tenofovir], the Fold decreased susceptibility was 2.4 fold in test [4] (recombinant clone 1617-1); 2.3 fold in test [4] (recombinant clone 4755-5); 1.1 fold in test [4] (recombinant clone 7295-1); 8.1 fold in test [4] (recombinant clone 7324-1); 4.2 fold in test [4] (recombinant clone 52534-2); 11 fold in test [4] (recombinant clone 56252-1). The “mean reduction in susceptibility” value in test [5] is 4.9 fold. The “median reduction in susceptibility” value in test [5] is listed as 3.3 fold.
Regarding `COC(=O)C(C)NP(=O)(OCC1OC(n2cc(C)c(=O)[nH]c2=O)CC1N=[N+]=[N-])Oc1ccccc1` (stereo not drawn) [Compound 5a], the IC50 in test [1] (Table 5) worked out at 1700 nM.
